In ChEMBL document CHEMBL1143240, “Inhibiting dihydrodipicolinate synthase across species: towards specificity for pathogens?” (Bioorg Med Chem Lett, 2008):
Calls of active or inactive are those of the source. The rule behind the calls is not given here.

Experiments:
[1] = test system: Escherichia coli; experiment: Inhibition of Escherichia coli DHDPS at 20 mM
[2] = biological target: T1, Dihydrodipicolinate synthase (Bacillus anthracis) (UniProt A0A6L7H340); experiment: Inhibition of Bacillus anthracis DHDPS at 20 mM
T1 sequence (whole entry): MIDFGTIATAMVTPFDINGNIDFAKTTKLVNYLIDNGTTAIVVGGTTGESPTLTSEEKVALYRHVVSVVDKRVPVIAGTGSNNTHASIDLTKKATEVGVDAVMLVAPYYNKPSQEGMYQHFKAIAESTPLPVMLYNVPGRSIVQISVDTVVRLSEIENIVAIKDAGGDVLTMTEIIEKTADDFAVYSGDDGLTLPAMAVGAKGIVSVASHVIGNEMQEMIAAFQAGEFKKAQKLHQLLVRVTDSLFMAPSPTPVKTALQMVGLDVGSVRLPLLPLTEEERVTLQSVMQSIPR

[3] = biological target: 4-hydroxy-tetrahydrodipicolinate synthase (Mycobacterium tuberculosis) (UniProt P9WP25); experiment: Inhibition of Mycobacterium tuberculosis DHDPS at 20 mM
[4] = test system: Staphylococcus aureus; experiment: Inhibition of methicillin-resistant Staphylococcus aureus DHDPS at 20 mM
[5] = test system: Escherichia coli; experiment: Inhibition of Escherichia coli NAL at 20 mM
[6] = test system: Escherichia coli; experiment: Antibacterial activity against Escherichia coli at 20 uM relative to control; type: functional, organism-based
[7] = Inhibition of Escherichia coli DHDPS

Compound | inhibition [1] [%] | inhibition [2] [%] | inhibition [3] [%] | inhibition [4] [%] | inhibition [5] [%] | Activity [6] | Ki [7] [mM]
O=C(O)[C@@H]1CCC[C@H](C(=O)O)N1 | 49 | 73 | 43 | 51 | 21 | – | –
COC(=O)[C@@H]1CS(=O)(=O)C[C@@H](C(=O)OC)N1 | 14 | 6 | 7 | 0 | 0 | – | –
COC(=O)[C@@H]1CSC[C@H](C(=O)OC)N1 | 35 | 23 | 0 | 0 | 1 | – | –
COC(=O)[C@@H]1CSC[C@@H](C(=O)OC)N1 | 12 | 19 | 0 | 0 | 0 | – | –
O=C(O)c1cccc(C(=O)O)n1 | 76 | 80 | 75 | 67 | 1 | – | –
COC(=O)[C@@H]1CCC[C@H](C(=O)OC)N1 | 92 | 99 | 24 | 58 | 18 | – | –
COC(=O)[C@@H]1C[S@@+]([O-])C[C@H](C(=O)OC)N1 | 8 | 8 | 1 | 10 | 0 | – | –
COC(=O)[C@@H]1CS(=O)(=O)C[C@H](C(=O)OC)N1 | 0 | 19 | 6 | 0 | 3 | inactive | –
O=C(O)c1cc(=O)cc(C(=O)O)[nH]1 | 74 | 0 | 73 | 83 | 27 | Active | –
COC(=O)[C@@H]1C[S+]([O-])C[C@@H](C(=O)OC)N1 (some centres undefined) | 0 | 7 | 0 | 7 | 7 | – | –
COC(=O)c1cc(=O)cc(C(=O)OC)[nH]1 | 85 | 0 | 84 | 88 | 64 | – | –
COC(=O)c1cccc(C(=O)OC)n1 | 5 | 13 | 0 | 0 | 0 | – | –
COC(=O)[C@@H]1C[S@+]([O-])C[C@H](C(=O)OC)N1 | 20 | 22 | 14 | 12 | 38 | – | –
N[C@@H](CC=O)C(=O)O | – | – | – | – | – | – | 14
CC(=O)C(=O)O [PYRUVATE] | – | – | – | – | – | – | 7
